What was measured:
Experiment in all cases: Cell proliferation Ex.3
Assay type in all cases: cell-based
[1] = system: NCIH82; details: Homo sapiens, NCI-H82
Description: (§1) A dose response relationship on cell proliferation was assessed for Compound 13 on 140 tumor cell lines. […] Cells were cultured in the appropriate media. For the assays, cells were seeded in white cell culture-treated flat and clear bottom multiwell plates and incubated at 37° C. overnight before compound was added. […] on the medium, cell plates were equilibrated to room temperature for one hour, CellTiterGlo reagent (Promega) was added and luminescence was measured approximately an hour later using a luminometer. Raw data were converted into percent cell viability relative to the high and low control, which were set to 10000 and 000, respectively.

[2] = system: EJ28; details: Homo sapiens, EJ-28
Description: as §1

[3] = system: RAMOS; details: Homo sapiens
Description: as §1

[4] = system: GRANTA-519; details: Homo sapiens
Description: as §1

[5] = system: A2780; details: Homo sapiens
Description: as §1

[6] = system: NCI-H292; details: Homo sapiens
Description: as §1

[7] = system: MHHES1; details: Homo sapiens, MHH-ES-1
Description: as §1

[8] = system: MDAMB436; details: Homo sapiens, MDA-MB-436
Description: as §1

[9] = system: ACHN; details: Homo sapiens
Description: as §1

[10] = system: ASPC1; details: Homo sapiens
Description: as §1

[11] = system: SKHEP1; details: Homo sapiens, SK-HEP1
Description: as §1

[12] = system: A549; details: Homo sapiens
Description: as §1

[13] = system: MIAPACA2; details: Homo sapiens, MIA PaCa-2
Description: as §1

[14] = system: HCT116; details: Homo sapiens, HCT-116
Description: as §1

[15] = system: SKOV3; details: Homo sapiens, SK-OV-3
Description: as §1

[16] = system: IMR90; details: Homo sapiens, IMR-90
Description: as §1

[17] = system: JAR
Description: as §1

[18] = system: CACO2; details: Homo sapiens, Caco-2
Description: as §1

[19] = system: COLO678; details: Homo sapiens, COLO-678
Description: as §1

[20] = system: HL-60; details: Homo sapiens
Description: as §1

[21] = system: PC3; details: Homo sapiens, PC-3
Description: as §1

[22] = system: RD; details: Homo sapiens
Description: as §1

[23] = system: IGROV1; details: Homo sapiens, IGROV-1
Description: as §1

[24] = system: OVCAR4; details: Homo sapiens, OVCAR-4
Description: as §1

[25] = system: KASUMI
Description: as §1

[26] = system: HEK293; details: Homo sapiens
Description: as §1

## C#C[C@]1(CO)O[C@@H](n2cc(F)c(N)nc2=O)C[C@@H]1O [compound 9]
[1]; NCIH82, 72 h
  IC50: > 10 µM
[1]; NCIH82, 120 h
  IC50: 9.1 µM
[1]; NCIH82, 168 h
  IC50: > 10 µM
[2]; EJ28, 72 h
  IC50: > 10 µM
[2]; EJ28, 120 h
  IC50: > 10 µM
[2]; EJ28, 168 h
  IC50: > 10 µM
[3]; 72 h
  IC50: 4.04 µM
[3]; 120 h
  IC50: 0.004 µM
[3]; 168 h
  IC50: 1.18 µM
[4]; Granta-519, 72 h
  IC50: 4.98 µM
[4]; Granta-519, 120 h
  IC50: 0.24 µM
[4]; Granta-519, 168 h
  IC50: 0.35 µM
[5]; A2780, 72 h
  IC50: > 10 µM
[5]; A2780, 120 h
  IC50: > 10 µM
[5]; A2780, 168 h
  IC50: > 10 µM
[6]; NCI-H292, 72 h
  IC50: > 10 µM
[6]; NCI-H292, 120 h
  IC50: > 10 µM
[6]; NCI-H292, 168 h
  IC50: > 10 µM
[7]; MHHES1, 72 h
  IC50: > 10 µM
[7]; MHHES1, 120 h
  IC50: > 10 µM
[7]; MHHES1, 168 h
  IC50: > 10 µM
[8]; MDAMB436, 72 h
  IC50: > 10 µM
[8]; MDAMB436, 120 h
  IC50: > 10 µM
[8]; MDAMB436, 168 h
  IC50: > 10 µM
[9]; 72 h
  IC50: > 10 µM
[9]; 120 h
  IC50: 0.91 µM
[9]; 168 h
  IC50: 0.94 µM
[10]; ASPC1, 72 h
  IC50: > 10 µM
[10]; ASPC1, 120 h
  IC50: 0.72 µM
[10]; ASPC1, 168 h
  IC50: 0.49 µM
[11]; SKHEP1, 72 h
  IC50: > 10 µM
[11]; SKHEP1, 120 h
  IC50: > 10 µM
[11]; SKHEP1, 168 h
  IC50: > 10 µM
[12]; A549, 72 h
  IC50: > 10 µM
[12]; A549, 120 h
  IC50: > 10 µM
[12]; A549, 168 h
  IC50: > 10 µM
[13]; MIAPACA2, 72 h
  IC50: > 10 µM
[13]; MIAPACA2, 120 h
  IC50: > 10 µM
[13]; MIAPACA2, 168 h
  IC50: > 10 µM
[14]; HCT116, 72 h
  IC50: > 10 µM
[14]; HCT116, 120 h
  IC50: > 10 µM
[14]; HCT116, 168 h
  IC50: > 10 µM
[15]; SKOV3, 72 h
  IC50: > 10 µM
[15]; SKOV3, 120 h
  IC50: > 10 µM
[15]; SKOV3, 168 h
  IC50: > 10 µM
[16]; IMR90, 72 h
  IC50: > 10 µM
[16]; IMR90, 120 h
  IC50: > 10 µM
[16]; IMR90, 168 h
  IC50: > 10 µM
[17]; 72 h
  IC50: > 10 µM
[17]; 120 h
  IC50: > 10 µM
[17]; 168 h
  IC50: > 10 µM
[18]; CACO2, 72 h
  IC50: > 10 µM
[18]; CACO2, 120 h
  IC50: > 10 µM
[18]; CACO2, 168 h
  IC50: > 10 µM
[19]; COLO678, 72 h
  IC50: > 10 µM
[19]; COLO678, 120 h
  IC50: > 10 µM
[19]; COLO678, 168 h
  IC50: > 10 µM
[20]; HL-60, 72 h
  IC50: > 10 µM
[20]; HL-60, 120 h
  IC50: > 10 µM
[20]; HL-60, 168 h
  IC50: > 10 µM
[21]; PC3, 72 h
  IC50: > 10 µM
[21]; PC3, 120 h
  IC50: > 10 µM
[21]; PC3, 168 h
  IC50: > 10 µM
[22]; 72 h
  IC50: > 10 µM
[22]; 120 h
  IC50: > 10 µM
[22]; 168 h
  IC50: > 10 µM
[23]; IGROV1, 72 h
  IC50: > 10 µM
[23]; IGROV1, 120 h
  IC50: > 10 µM
[23]; IGROV1, 168 h
  IC50: > 10 µM
[24]; OVCAR4, 72 h
  IC50: > 10 µM
[24]; OVCAR4, 120 h
  IC50: > 10 µM
[24]; OVCAR4, 168 h
  IC50: > 10 µM
[25]; 72 h
  IC50: > 10 µM
[25]; 120 h
  IC50: > 10 µM
[25]; 168 h
  IC50: > 10 µM
[26]; HEK293, 72 h
  IC50: > 10 µM
[26]; HEK293, 120 h
  IC50: > 10 µM
[26]; HEK293, 168 h
  IC50: > 10 µM

Reference: patent US20230293526A1, “METHOD FOR TREATING CANCER WITH A REVERSE TRANSCRIPTASE INHIBITOR” (PrimeFour Therapeutics, Inc., priority 2020, published 2023)
